Measurements as given in article PMC7460560, “Discovery of Novel Agents on Spindle Assembly Checkpoint to Sensitize Vinorelbine-Induced Mitotic Cell Death against Human Non-Small Cell Lung Cancers” (International Journal of Molecular Sciences, 2020).

Columns and labels:
[1] = target: T1, PDE5A1 (phosphodiesterase type 5) (Homo sapiens, UniProt O76074); assay: PDE5A1 assay kit (BPS Bioscience), fluorescence polarization with FAM-cyclic-3', […]'-GMP; type: biochemical
T1 construct: gene PDE5A

tubulin = target: T2, tubulin (Sus scrofa, UniProt P02550+P02554); assay: in vitro pure tubulin polymerization assay (Cytoskeleton kit, […] nm), […] inhibition at […]; type: biochemical; details: read-out: % inhibition at 1000 nM
T2 construct: with alpha-tubulin
T2 sequence (P02554 whole entry): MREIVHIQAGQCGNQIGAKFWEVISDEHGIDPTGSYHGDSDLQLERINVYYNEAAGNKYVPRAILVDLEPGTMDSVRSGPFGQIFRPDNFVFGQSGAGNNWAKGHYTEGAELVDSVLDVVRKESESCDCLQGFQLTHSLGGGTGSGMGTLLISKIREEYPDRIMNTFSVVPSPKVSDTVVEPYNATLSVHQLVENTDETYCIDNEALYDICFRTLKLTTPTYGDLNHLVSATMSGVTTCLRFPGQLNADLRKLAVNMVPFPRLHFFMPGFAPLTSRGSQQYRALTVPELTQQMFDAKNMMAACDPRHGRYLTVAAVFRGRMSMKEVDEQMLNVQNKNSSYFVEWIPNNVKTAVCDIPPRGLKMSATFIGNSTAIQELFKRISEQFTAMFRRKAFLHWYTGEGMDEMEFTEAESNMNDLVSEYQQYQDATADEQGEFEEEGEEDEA
T2 sequence (P02550 whole entry): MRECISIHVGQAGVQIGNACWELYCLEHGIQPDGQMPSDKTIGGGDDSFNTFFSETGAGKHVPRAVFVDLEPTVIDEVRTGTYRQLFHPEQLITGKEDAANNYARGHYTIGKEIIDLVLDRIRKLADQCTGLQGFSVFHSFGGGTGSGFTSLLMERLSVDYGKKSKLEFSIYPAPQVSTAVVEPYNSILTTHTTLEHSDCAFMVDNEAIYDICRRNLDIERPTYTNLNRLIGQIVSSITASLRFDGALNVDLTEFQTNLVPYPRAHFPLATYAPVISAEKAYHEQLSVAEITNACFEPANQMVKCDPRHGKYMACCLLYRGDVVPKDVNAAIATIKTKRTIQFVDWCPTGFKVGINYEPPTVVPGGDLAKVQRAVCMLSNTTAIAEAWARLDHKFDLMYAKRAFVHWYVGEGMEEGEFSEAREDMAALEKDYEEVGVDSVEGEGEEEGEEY

CCCn1nnc2c(OC)nc(-c3cc(S(=O)(=O)N4CCN(C)CC4)ccc3OC)nc21 [YL-9]
IC50 [1]: 632 nM

CCC1=C[C@@H]2CN(C1)Cc1c([nH]c3ccccc13)[C@@](C(=O)OC)(c1cc3c(cc1OC)N(C)[C@H]1[C@@](O)(C(=O)OC)[C@H](OC(C)=O)[C@]4(CC)C=CCN5CC[C@]31[C@@H]54)C2 [vinorelbine]
inhibition at 1 µM (tubulin): 16.7%
